Results published in the NIST ThermoML archive (doi:10.1021/je2008582).

Settings: Liquid, Vibrating tube method

CCCCC/C=C\C/C=C\CCCCCCCC(=O)OC [methyl (Z,Z)-9,12-octadecadienate]
Settings	mass density [kg/m3]
270 K, 490 kPa	904.6
270 K, 990 kPa	904.9
270 K, 1990 kPa	905.4
270 K, 3000 kPa	905.9
270 K, 3990 kPa	906.5
270 K, 5000 kPa	907
270 K, 10000 kPa	909.6
270 K, 20000 kPa	914.6
270 K, 29990 kPa	919.3
270 K, 39990 kPa	923.8
270 K, 49970 kPa	928.2
290 K, 500 kPa	889.7
290 K, 990 kPa	890
290 K, 1990 kPa	890.6
290 K, 2990 kPa	891.2
290 K, 3990 kPa	891.8
290 K, 5000 kPa	892.4
290 K, 9990 kPa	895.2
290 K, 19990 kPa	900.7
290 K, 30000 kPa	905.8
290 K, 39990 kPa	910.7
290 K, 49970 kPa	915.3
310 K, 500 kPa	875.1
310 K, 1000 kPa	875.4
310 K, 1990 kPa	876.1
310 K, 2990 kPa	876.7
310 K, 3990 kPa	877.4
310 K, 4990 kPa	878
310 K, 9990 kPa	881.1
310 K, 20000 kPa	887
310 K, 30000 kPa	892.5
310 K, 39990 kPa	897.8
310 K, 49990 kPa	902.8
330 K, 490 kPa	860.6
330 K, 990 kPa	860.9
330 K, 1990 kPa	861.6
330 K, 2990 kPa	862.4
330 K, 3990 kPa	863.1
330 K, 4990 kPa	863.8
330 K, 9990 kPa	867.1
330 K, 19990 kPa	873.5
330 K, 29980 kPa	879.5
330 K, 39990 kPa	885.1
330 K, 50000 kPa	890.4
350 K, 500 kPa	846.2
350 K, 1000 kPa	846.6
350 K, 1990 kPa	847.4
350 K, 2990 kPa	848.2
350 K, 3990 kPa	848.9
350 K, 5000 kPa	849.7
350 K, 9990 kPa	853.4
350 K, 19990 kPa	860.3
350 K, 29990 kPa	866.7
350 K, 40000 kPa	872.7
350 K, 49980 kPa	878.4
370 K, 490 kPa	831.6
370 K, 990 kPa	832.1
370 K, 1990 kPa	832.9
370 K, 2990 kPa	833.8
370 K, 4000 kPa	834.6
370 K, 5000 kPa	835.5
370 K, 10000 kPa	839.5
370 K, 19990 kPa	847
370 K, 29990 kPa	854
370 K, 39990 kPa	860.4
370 K, 49980 kPa	866.4
390 K, 490 kPa	817.1
390 K, 990 kPa	817.6
390 K, 1990 kPa	818.5
390 K, 3000 kPa	819.5
390 K, 3990 kPa	820.4
390 K, 4990 kPa	821.3
390 K, 9990 kPa	825.8
390 K, 20000 kPa	834
390 K, 29990 kPa	841.4
390 K, 40000 kPa	848.3
390 K, 49990 kPa	854.7
410 K, 490 kPa	802.5
410 K, 1000 kPa	803
410 K, 2000 kPa	804.1
410 K, 2990 kPa	805.1
410 K, 3990 kPa	806.2
410 K, 4990 kPa	807.2
410 K, 9990 kPa	812.1
410 K, 19990 kPa	821
410 K, 29990 kPa	829.1
410 K, 40000 kPa	836.5
410 K, 49970 kPa	843.3
430 K, 490 kPa	787.5
430 K, 1000 kPa	788.1
430 K, 1990 kPa	789.3
430 K, 2990 kPa	790.5
430 K, 3990 kPa	791.6
430 K, 5000 kPa	792.7
430 K, 9990 kPa	798.1
430 K, 19990 kPa	807.9
430 K, 29990 kPa	816.6
430 K, 40000 kPa	824.5
430 K, 50010 kPa	831.8
450 K, 490 kPa	772.5
450 K, 990 kPa	773.2
450 K, 2000 kPa	774.5
450 K, 2990 kPa	775.8
450 K, 4000 kPa	777.1
450 K, 4990 kPa	778.3
450 K, 10000 kPa	784.3
450 K, 19990 kPa	794.9
450 K, 30000 kPa	804.3
450 K, 39990 kPa	812.8
450 K, 49980 kPa	820.6
470 K, 500 kPa	757.5
470 K, 990 kPa	758.3
470 K, 1990 kPa	759.7
470 K, 3000 kPa	761.2
470 K, 3990 kPa	762.6
470 K, 4990 kPa	764
470 K, 9990 kPa	770.6
470 K, 19990 kPa	782.2
470 K, 29990 kPa	792.4
470 K, 39990 kPa	801.5
470 K, 49980 kPa	809.7
